Measured values as given in patent US10188693B2, “Methods for treatment of atherosclerosis” (Stealth BioTherapeutics Corp, priority 2012, dated 2019).
Several values for one entry are separate records, joined by “and”; a condition that tells them apart may be missing. Identical values can stand only once.

Legend:
[1] = tested on: Apoprotein E deficient mice; experiment: Plasma lipid analysis using an autoanalyzer (TC, Trigs, PL, FC, CE by calculation); assay type: in vivo; design: TC, plasma / FC, plasma / CE, plasma / Trigs, plasma / PL, plasma / TC / FC / CE / Trigs / PL: unit not given here; conditions: for PL: plasma phospholipid; for TC: plasma total cholesterol; for Trigs: plasma triglycerides
Description: (§1) Apoprotein E deficient mice (Jackson Laboratories, 600 Main Street, Bar Harbor, Me.) were used in this study. The mice were male, 7-8 weeks of age, and between 18-20 g in weight. An initial total cholesterol measurement was made on 30 mice, and the mice were grouped into two groups of 15 to match the total cholesterol measurements. Both groups were fed a “western diet” (40 kcal % butterfat, 0.15% [wt/wt] cholesterol, Harlan Teklad diet TD-88137). Starting at t=0, the control group of 15 mice received vehicle only (phosphate buffered saline at pH 7.4), while the test group of 15 mice received aromatic-cationic peptide reconstituted in phosphate buffered saline. Body weights of the mice were recorded weekly, and mortality checks were performed daily.
(§2) The aromatic-cationic peptide D-Arg-2′6′-Dmt-Lys-Phe-NH2 (sterile lyophilized powder, reconstituted in phosphate buffered saline) was tested. For the 12-week study, test mice received a single, daily dose of the peptide, subcutaneously at 1 mg/kg. Control mice received a single daily dose of vehicle.
(§3) Experimental Protocol/Data Collection. Blood was collected every four weeks (orbital plexis) under isoflurane anesthesia (3%) and blood lipids were determined. Plasma lipid analysis was conducted for both groups at t=0, 4, […], 8, and 12 weeks. Plasma lipid analysis using an autoanalyzer included total cholesterol (TC), triglycerides (Trigs), phospholipids (PL), free cholesterol (FC), and cholesterol ester (CE, by calculation). Gel electrophoresis was used to measure levels of high-density lipoprotein cholesterol (HDL-C), low-density lipoprotein cholesterol (LDL-C), and very low-density lipoprotein cholesterol (VLDL-C).

[2] = tested on: Apoprotein E deficient mice; experiment: Plasma lipoprotein cholesterol by gel electrophoresis (Spife; HDL-C, LDL-C, VLDL-C); assay type: in vivo; conditions: for HDL-C / LDL-C / VLDL-C: plasma, Spife (electrophoresis)
Description: as §1, §2, §3

[3] = tested on: Human skin fibroblasts; experiment: Coenzyme Q10 levels in fibroblasts treated with peptide; assay type: cell-based; conditions: 10 nM peptide, 16-24 hours or 5 days, versus saline treated fibroblasts; listed as aromatic-cationic peptide
Method: Fibroblasts were treated with an aromatic-cationic peptide of the present disclosure, and levels of coenzyme Q10 were evaluated.
Human skin fibroblasts from normal subjects were incubated under standard tissue culture medium containing high glucose levels to support anaerobic conditions. At approximately 90% confluence, cells were incubated in the presence of 10 nM D-Arg-2′6′-Dmt-Lys-Phe-NH2 for a period of either one day (24 h) or five days as shown in Table 11 below. The culture medium was not changed during the incubation period. Cells were harvested and the cellular level of CoQ was determined using methods known in the art. Data represents the average n=3-6.

[4] = week 12, AVE of 15 test animals
[5] = week 12, individual test mouse (sample #16-30), listed as aromatic-cationic peptide
[6] = week 4, individual test mouse (sample #16-30), listed as aromatic-cationic peptide
[7] = week 8, individual test mouse (sample #16-30), listed as aromatic-cationic peptide
[8] = Week 0 (t=0, start of dosing), individual mouse of test group
[9] = Week 0, group average of test group
[10] = at 4, 8 and 12 week time points, versus vehicle

D-Arg-2′6′-Dmt-Lys-Phe-NH2
PL [1, 4]: 434 | PL [1, 5]: 366 and 318 and 320 and 432 and 491 and 321 and 363 and 394 and 374 and 423 and 536 and 521 and 340 and 575 and 741 | TC ([1]; week 4, AVE of 15 test animals): 997 | TC [1, 6]: 799 and 924 and 976 and 1139 and 1038 and 673 and 940 and 1046 and 835 and 822 and 1026 and 1223 and 935 and 1248 and 1337 | TC ([1]; week 8, AVE of 15 test animals): 1282 | TC [1, 7]: 1262 and 1004 and 1505 and 1183 and 1545 and 943 and 1008 and 1473 and 1023 and 956 and 1435 and 1414 and 1147 and 1534 and 1797 | TC [1, 4]: 1003 | TC [1, 5]: 898 and 540 and 884 and 937 and 1420 and 719 and 674 and 745 and 990 and 999 and 1379 and 1255 and 558 and 1317 and 1736 | Trigs ([1]; week 4, AVE of 15 test animals): 58 | Trigs [1, 6]: 18 (2×) and 39 and 28 and 85 and 59 (2×) and 46 and 108 and 33 and 44 (2×) and 67 and 80 and 144 | Trigs ([1]; week 8, AVE of 15 test animals): 57 | Trigs [1, 7]: 34 (3×) and 31 (2×) and 51 (2×) and 48 and 53 and 43 and 75 and 63 and 39 and 67 and 195 | Trigs [1, 4]: 55 | Trigs [1, 5]: 27 and 49 and 10 and 37 (2×) and 18 and 39 (2×) and 13 and 25 and 74 and 89 and 97 and 112 and 158 | HDL-C, plasma [2, 8]: 19 mg/dL and 34 mg/dL and 32 mg/dL and 37 mg/dL and 35 mg/dL and 21 mg/dL and 38 mg/dL and 41 mg/dL and 6 mg/dL and 31 mg/dL and 26 mg/dL and 39 mg/dL and 22 mg/dL and 29 mg/dL and 8 mg/dL | LDL-C, plasma [2, 8]: 258 mg/dL and 260 mg/dL and 307 mg/dL and 245 mg/dL and 268 mg/dL and 295 mg/dL and 304 mg/dL and 474 mg/dL and 287 mg/dL and 352 mg/dL and 380 mg/dL and 481 mg/dL and 410 mg/dL and 432 mg/dL and 773 mg/dL | VLDL-C, plasma [2, 8]: 25 mg/dL (2×) and 23 mg/dL and 37 mg/dL and 20 mg/dL (2×) and 19 mg/dL and 27 mg/dL and 36 mg/dL and 15 mg/dL and 26 mg/dL and 31 mg/dL and 24 mg/dL and 28 mg/dL and 29 mg/dL | HDL-C, plasma, AVE [2, 9]: 28 mg/dL | LDL-C, plasma, AVE [2, 9]: 368 mg/dL | VLDL-C, plasma, AVE [2, 9]: 26 mg/dL | plasma LDL-C, in words [2, 10]: reduces | plasma VLDL-C, in words [2, 10]: reduces | HDL-C ([2]; week 4, AVE of 15 test animals): 25 mg/dL | LDL-C ([2]; week 4, AVE of 15 test animals): 940 mg/dL | VLDL-C ([2]; week 4, AVE of 15 test animals): 33 mg/dL | HDL-C [2, 6]: 18 mg/dL and 20 mg/dL (3×) and 0 mg/dL and 13 mg/dL and 7 mg/dL and 23 mg/dL and 32 mg/dL (3×) and 15 mg/dL and 45 mg/dL and 44 mg/dL and 49 mg/dL | LDL-C [2, 6]: 745 mg/dL and 866 mg/dL and 918 mg/dL and 1120 mg/dL and 982 mg/dL and 648 mg/dL and 893 mg/dL and 975 mg/dL and 770 mg/dL and 766 mg/dL and 966 mg/dL and 1147 mg/dL and 874 mg/dL and 1171 mg/dL and 1254 mg/dL | VLDL-C [2, 6]: 35 mg/dL (2×) and 37 mg/dL (2×) and 19 mg/dL and 44 mg/dL (2×) and 18 mg/dL and 23 mg/dL and 39 mg/dL and 41 mg/dL and 28 mg/dL and 31 mg/dL and 30 mg/dL and 32 mg/dL | HDL-C ([2]; week 8, AVE of 15 test animals): 32 mg/dL | LDL-C ([2]; week 8, AVE of 15 test animals): 1166 mg/dL | VLDL-C ([2]; week 8, AVE of 15 test animals): 84 mg/dL | HDL-C [2, 7]: 42 mg/dL and 34 mg/dL and 27 mg/dL and 33 mg/dL and 19 mg/dL (2×) and 8 mg/dL and 45 mg/dL and 16 mg/dL and 32 mg/dL and 41 mg/dL (2×) and 25 mg/dL and 43 mg/dL and 57 mg/dL | LDL-C [2, 7]: 1119 mg/dL and 897 mg/dL and 1392 mg/dL and 1071 mg/dL and 1415 mg/dL and 901 mg/dL and 875 mg/dL and 1378 mg/dL and 922 mg/dL and 856 mg/dL and 1317 mg/dL and 1320 mg/dL and 1025 mg/dL and 1382 mg/dL and 1621 mg/dL | VLDL-C [2, 7]: 101 mg/dL and 73 mg/dL and 86 mg/dL and 79 mg/dL (2×) and 112 mg/dL and 34 mg/dL and 88 mg/dL and 69 mg/dL and 59 mg/dL and 93 mg/dL and 74 mg/dL and 80 mg/dL and 109 mg/dL and 119 mg/dL | HDL-C [2, 4]: 21 mg/dL | LDL-C [2, 4]: 939 mg/dL | VLDL-C [2, 4]: 44 mg/dL | HDL-C [2, 5]: 38 mg/dL and 20 mg/dL (2×) and 10 mg/dL and 41 mg/dL and 21 mg/dL and 5 mg/dL and 31 mg/dL (2×) and 2 mg/dL (2×) and 40 mg/dL and 28 mg/dL and 1 mg/dL and 23 mg/dL | LDL-C [2, 5]: 821 mg/dL and 485 mg/dL and 854 mg/dL and 852 mg/dL and 1328 mg/dL and 693 mg/dL and 611 mg/dL and 692 mg/dL and 962 mg/dL and 896 mg/dL and 1275 mg/dL and 1218 mg/dL and 505 mg/dL and 1203 mg/dL and 1688 mg/dL | VLDL-C [2, 5]: 39 mg/dL and 35 mg/dL and 21 mg/dL (2×) and 43 mg/dL and 71 mg/dL and 32 mg/dL and 33 mg/dL and 26 mg/dL and 63 mg/dL and 76 mg/dL and 36 mg/dL and 30 mg/dL and 83 mg/dL and 46 mg/dL | coenzyme Q10 levels in fibroblast cells, in words [3]: increased
